# Test results from patent US9670374B2, “Water-based ink for inkjet printing” (KAO CORPORATION, priority 2013, dated 2017).
# Read-outs that look alike come from different tables or passages of the source.
# Test: Measurement of 1-octanol/water partition coefficient (shake flask method)
# Format: physicochemical
# Experimental: The 1-octanol/water partition coefficient of the diethylene glycol isopropyl ether was measured by a shake flask method prescribed in JIS Z7260-107.
# First, 10 g of ion-exchanged water and 10 g of 1-octanol were charged into a 50 mL separating funnel, and shaken at 25° C. to establish an equilibrium therebetween. Then, 1 g of diethylene glycol isopropyl ether was charged into the separating funnel, and the contents of the separating funnel were intimately shaken and subjected to centrifugal separation to separate the mixture into a 1-octanol phase and a water phase. The amounts of the diethylene glycol isopropyl ether dissolved in the respective phases were quantitatively determined by gas chromatography, thereby obtaining a partition coefficient of the diethylene glycol isopropyl ether between the two phases. The log P vale was determined as a common logarithm of the partition coefficient.
# The same measurement procedure as in the above item (i) was repeated except for using a solvent to be measured in place of the diethylene glycol isopropyl ether (c1), thereby obtaining a 1-octanol/water partition coefficient of the solvent.
# [1] = shake flask method JIS Z7260-107, 25° C., log P as common logarithm
# [2] = shake flask method JIS Z7260-107, 25° C., log P as common logarithm, read-out: 1-octanol/water partition coefficient
# [3] = 1-octanol/water, shake flask method JIS Z7260-107, 25° C., log P as common logarithm, read-out: 1-octanol/water partition coefficient
logP,logP [3],1-octanol/water partition coefficient,Structure (SMILES),1-octanol/water partition coefficient [1],logP [2]
-0.95,,Propylene glycol (−0.95),CC(O)CO (stereo not shown) [propylene glycol],,
-1.5,,Glycerol (≧−1.5),OCC(O)CO [glycerol],,
,0.04,,CC(C)OCCOCCO [diethylene glycol isopropyl ether],DEGPE (0.04)*^1,

# Second part, the compound before the results:
Structure (SMILES),logP,logP [3],1-octanol/water partition coefficient,1-octanol/water partition coefficient [1],logP [2]
O=C1CCCN1 [2-pyrrolidone],-0.63,,,,
"COCCOCCO [diethylene glycol monomethyl ether, Diethylene glycol monomethyl ether]",,,,DEGME (−0.85),-0.85
"CCOCCOCCO [diethylene glycol monoethyl ether, Diethylene glycol monoethyl ether]",,-0.31,,DEGEE (−0.31),
CCCCOCCOCCO [Diethylene glycol monobutyl ether],,,ether (0.7),,
OCCOCCOCCO [triethylene glycol],-1.45,,Triethylene glycol (−1.45),,
OCCOCCO [diethylene glycol],,,,Diethylene glycol (−1.39),-1.39
